Patent publication US20140349994A1, “Novel 2-Amino-4,5,6,8-Tetrahydropyrazolo[3,4-b]Thiazolo [4,5-d]Azepine Derivatives and Their Use as Allosteric Modulators of Metabotropic Glutamate Receptors” (Addex Pharma S.A., priority 2012, published 2014)
pEC50: −log10 of the molar value.

Assays:
[1] = target: T1, recombinant human mGluR4a receptors (Homo sapiens, UniProt Q14833); experiment: mGluR4 assay on HEK-expressing human mGluR4: fluorescent cell based Ca2+ mobilization assay (FLIPR); details: HEK-293 cells expressing hmGluR4; enhancement of EC25 glutamate response; mean of at least three independent experiments in duplicate; read-out: Ca^2+ Flux (mean EC50)
T1 construct: expressed in transfected cells
From the text: mGluR4 Assay on HEK-Expressing Human mGluR4
The compounds of the present invention are positive allosteric modulators of mGluR4 receptor. Their activity was examined on recombinant human mGluR4a receptors by detecting changes in intracellular Ca^2+ concentration, using the fluorescent Ca^2+-sensitive dye Fluo4-(AM) and a Fluorometric Imaging Plate Reader (FLIPR, Molecular Devices, Sunnyvale, Calif.).
The cDNA encoding the human metabotropic glutamate receptor (hmGluR4), (accession number NM 000841.1, NCBI Nucleotide database browser), was subcloned into an expression vector containing also the hygromycin resistance gene. In parallel, the cDNA encoding a G protein allowing redirection of the activation signal to intracellular calcium flux was subcloned into a different expression vector containing also the puromycin resistance gene. Transfection of both these vectors into HEK293 cells with PolyFect reagent (Qiagen) according to supplier's protocol, and hygromycin and puromycin treatment allowed selection of antibiotic resistant cells which had integrated stably one or more copies of the plasmids. Positive cellular clones expressing hmGluR4 were identified in a functional assay measuring changes in calcium fluxes in response to glutamate or selective known mGluR4 orthosteric agonists and antagonists.
HEK-293 cells expressing hmGluR4 were maintained in media containing DMEM, dialyzed Fetal Calf Serum (10%), Glutamax™ (2 mM), Penicillin (100 units/mL), Streptomycin (100 μg/mL), Geneticin (100 μg/mL) and Hygromycin-B (40 μg/mL) and puromycin (1 μg/mL) at 37° C.5% CO2.
Human mGluR4 HEK-293 cells were plated out 24 hours prior to FLIPR^384 assay in black-walled, clear-bottomed, poly-L-ornithine-coated 384-well plates at a density of 25,000 cells/well in a glutamine/glutamate free DMEM medium containing foetal bovine serum (10%), penicillin (100 units/mL) and streptomycin (100 μg/mL) at 37° C.5% CO2.
On the day of the assay, the medium was aspirated and the cells were loaded with a 3 μM solution of Fluo4-AM (LuBioScience, Lucerne, Switzerland) in 0.03% pluronic acid. After 1 hour at 37° C. 5% CO2, the non incorporated dye was removed by washing cell plate with the assay buffer and the cells were left in the dark at room temperature for six hours before testing. All assays were performed in a pH 7.4 buffered-solution containing 20 mM HEPES, 143 mM NaCl, 6 mM KCl, 1 mM MgSO4, 1 mM CaCl2, 0.125 mM sulfapyrazone and 0.1% glucose.
After 10 s of basal fluorescence recording, various concentrations of the compounds of the invention were added to the cells. Changes in fluorescence levels were first monitored for 180 s in order to detect any agonist activity of the compounds. Then the cells were stimulated by an EC25 glutamate concentration for an additional 110 s in order to measure enhancing activities of the compounds of the invention. EC25 glutamate concentration is the concentration giving 25% of the maximal glutamate response.
The concentration-response curves of representative compounds of the present invention were generated using the Prism GraphPad software (Graph Pad Inc, San Diego, USA). The curves were fitted to a four-parameter logistic equation:
(Y=Bottom+(Top-Bottom)(1+10̂((Log EC50−X)*Hill Slope)
allowing the determination of EC50 values.
The Table 3 below represents the mean EC50 obtained from at least three independent experiments of selected molecules performed in duplicate.

T1 sequence (Q14833 33-912): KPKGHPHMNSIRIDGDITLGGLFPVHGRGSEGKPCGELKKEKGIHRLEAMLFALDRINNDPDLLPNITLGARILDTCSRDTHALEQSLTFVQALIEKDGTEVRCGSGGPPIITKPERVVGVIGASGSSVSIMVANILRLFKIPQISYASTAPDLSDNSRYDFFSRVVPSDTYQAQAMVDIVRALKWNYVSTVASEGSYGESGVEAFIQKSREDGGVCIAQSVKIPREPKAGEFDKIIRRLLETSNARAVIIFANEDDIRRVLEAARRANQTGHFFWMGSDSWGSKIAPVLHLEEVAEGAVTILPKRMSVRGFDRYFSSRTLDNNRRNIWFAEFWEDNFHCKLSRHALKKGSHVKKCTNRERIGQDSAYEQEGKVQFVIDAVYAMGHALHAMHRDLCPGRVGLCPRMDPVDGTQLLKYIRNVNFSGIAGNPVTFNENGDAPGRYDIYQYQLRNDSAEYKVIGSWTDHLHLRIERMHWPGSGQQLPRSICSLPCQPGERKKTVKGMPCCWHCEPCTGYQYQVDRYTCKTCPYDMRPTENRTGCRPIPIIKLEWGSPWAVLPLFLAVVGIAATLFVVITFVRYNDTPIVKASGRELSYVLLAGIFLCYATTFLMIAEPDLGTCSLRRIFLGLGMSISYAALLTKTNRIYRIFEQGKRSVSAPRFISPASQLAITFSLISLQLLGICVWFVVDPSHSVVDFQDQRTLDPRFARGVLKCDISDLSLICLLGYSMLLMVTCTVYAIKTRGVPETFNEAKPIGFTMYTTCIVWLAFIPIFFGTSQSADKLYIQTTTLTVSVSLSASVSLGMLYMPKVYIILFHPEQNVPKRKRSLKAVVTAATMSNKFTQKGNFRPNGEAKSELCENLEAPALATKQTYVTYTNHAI

Compound | melting point | pEC50 [1]
Fc1cnc(Nc2nc3c(s2)CCN(Cc2cccc(F)c2)c2[nH]ncc2-3)nc1 [Compound 1-2] | 265 to 270 °C | 5.00 to 6.00
Fc1cnc(Nc2nc3c(s2)CCN(Cc2cc(C4CC4)on2)c2[nH]ncc2-3)nc1 [Compound 1-4] |  | > 7.00
Fc1cnc(Nc2nc3c(s2)CCN(Cc2cc(C4CC4)no2)c2[nH]ncc2-3)nc1 [Compound 1-7] | 266 to 268 °C | > 7.00
Fc1cnc(Nc2nc3c(s2)CCN(Cc2csc(C4CC4)n2)c2[nH]ncc2-3)nc1 [Compound 1-8] | 240 to 245 °C | 6.00 to 7.00
Fc1cnc(Nc2nc3c(s2)CCN(CC2CC(F)(F)C2)c2[nH]ncc2-3)nc1 [Compound 1-14] | > 280 °C | 6.00 to 7.00
COC(C)(C)CN1CCc2sc(Nc3ncc(F)cn3)nc2-c2cn[nH]c21 [Compound 1-124] | 282 to 285 °C | 6.00 to 7.00
COC[C@H](C)N1CCc2sc(Nc3ncc(F)cn3)nc2-c2cn[nH]c21 [Compound 1-131, N-(5-Fluoropyrimidin-2-yl)-6-(2-methoxy-1(S)-methyl-ethyl)-4,5,6,8-tetrahydropyrazolo[3,4-b]thiazolo[4,5-d]azepin-2-amine] | 249 to 251 °C | > 7.00
OCCCN1CCc2sc(Nc3ncc(F)cn3)nc2-c2cn[nH]c21 [Compound 1-132, 3-(2-(5-Fluoropyrimidin-2-ylamino)-4,5-dihydropyrazolo[3,4-b]thiazolo[4,5-d]azepin-6(8H)-yl)propan-1-ol] |  | 6.00 to 7.00
COCCOCCN1CCc2sc(Nc3ncc(F)cn3)nc2-c2cn[nH]c21 [Compound 1-133] | > 220 °C | > 7.00
CCOCCN1CCc2sc(Nc3ncc(F)cn3)nc2-c2cn[nH]c21 [Compound 1-134] | 246 °C | > 7.00
Fc1cnc(Nc2nc3c(s2)CCN(Cc2ccc(N4CCOCC4)cn2)c2[nH]ncc2-3)nc1 [Compound 1-135, N-(5-Fluoropyrimidin-2-yl)-6-((5-morpholinopyridin-2-yl)methyl)-4,5,6,8-tetrahydropyrazolo[3,4-b]thiazolo[4,5-d]azepin-2-amine] | 240 °C | > 7.00
Fc1cnc(Nc2nc3c(s2)CCN(CCN2CCOCC2)c2[nH]ncc2-3)nc1 [Compound 1-136, N-(5-Fluoropyrimidin-2-yl)-6-(2-morpholinoethyl)-4,5,6,8-tetrahydropyrazolo[3,4-b]thiazolo[4,5-d]azepin-2-amine] |  | 6.00 to 7.00
FCCN1CCc2sc(Nc3ncc(F)cn3)nc2-c2cn[nH]c21 [Compound 1-137] | 283 to 286 °C | > 7.00
Cc1nc(CN2CCc3sc(Nc4ncc(F)cn4)nc3-c3c[nH]nc32)no1 [Compound 1-138, N-(5-Fluoropyrimidin-2-yl)-6-((5-methyl-1,2,4-oxadiazol-3-yl)methyl)-4,5,6,8-tetrahydropyrazolo[3,4-b]thiazolo[4,5-d]azepin-2-amine] |  | > 7.00
Cn1ccc(CN2CCc3sc(Nc4ncc(F)cn4)nc3-c3cn[nH]c32)n1 [Compound 1-139] | 195 to 200 °C | 6.00 to 7.00
Fc1cnc(Nc2nc3c(s2)CCN(CCCN2CCOCC2)c2n[nH]cc2-3)nc1 [Compound 1-140, N-(5-Fluoropyrimidin-2-yl)-6-(3-morpholinopropyl)-4,5,6,8-tetrahydropyrazolo[3,4-b]thiazolo[4,5-d]azepin-2-amine] |  | > 7.00
COCc1ccc(CN2CCc3sc(Nc4ncc(F)cn4)nc3-c3cn[nH]c32)nc1 [Compound 1-143] | 198 to 202 °C | > 7.00
Fc1cnc(Nc2nc3c(s2)CCN(CCCN2CCCCC2)c2[nH]ncc2-3)nc1 [Compound 1-144] | 227 °C | 6.00 to 7.00
Cc1ccnc(Nc2nc3c(s2)CCN(CCCN2CCOCC2)c2[nH]ncc2-3)n1 [Compound 1-145] | 251 °C | > 7.00
CC(C)c1nc(CN2CCc3sc(Nc4ncc(F)cn4)nc3-c3cn[nH]c32)no1 [Compound 1-147] | > 260 °C | > 7.00
Fc1cnc(Nc2nc3c(s2)CCN(CCCN2CCC(F)(F)CC2)c2[nH]ncc2-3)nc1 [Compound 1-148, 6-(3-(4,4-Difluoropiperidin-1-yl)propyl)-N-(5-fluoropyrimidin-2-yl)-4,5,6,8-tetrahydropyrazolo[3,4-b]thiazolo[4,5-d]azepin-2-amine] | 238 to 240 °C | 6.00 to 7.00
FCCCN1CCc2sc(Nc3ncc(F)cn3)nc2-c2cn[nH]c21 [Compound 1-149] | > 290 °C | 5.00 to 6.00
Cc1noc(CN2CCc3sc(Nc4ncc(F)cn4)nc3-c3cn[nH]c32)n1 [Compound 1-150, N-(5-Fluoropyrimidin-2-yl)-6-((3-methyl-1,2,4-oxadiazol-5-yl)methyl)-4,5,6,8-tetrahydropyrazolo[3,4-b]thiazolo[4,5-d]azepin-2-amine] |  | > 7.00
O=S1(=O)CCN(CCCN2CCc3sc(Nc4ncc(F)cn4)nc3-c3cn[nH]c32)CC1 [Compound 1-151, 4-(3-(2-((5-Fluoropyrimidin-2-yl)amino)-4,5-dihydropyrazolo[3,4-b]thiazolo[4,5-d]azepin-6(8H)-yl)propyl)thiomorpholine 1,1-dioxide] | 272 to 273 °C | > 7.00
CC1COCC(C)N1CCCN1CCc2sc(Nc3ncc(F)cn3)nc2-c2cn[nH]c21 (centres unmarked) [Compound 1-153] | 223 °C | > 7.00

Results, then the compound that gave them:

melting point | pEC50 [1] | Compound
282 to 284 °C | 6.00 to 7.00 | N#Cc1cccc(CN2CCc3sc(Nc4ncc(F)cn4)nc3-c3cn[nH]c32)c1 [Compound 1-1, 3-((2-(5-Fluoropyrimidin-2-ylamino)-4,5-dihydropyrazolo[3,4-b]thiazolo[4,5-d]azepin-6(7H)-yl)methyl)benzonitrile]
 | 5.00 to 6.00 | Cc1nc(Nc2nc3c(s2)CCN(CC2CC2)c2[nH]ncc2-3)ns1 [Compound 1-3]
165 to 168 °C | > 7.00 | Cc1ccnc(Nc2nc3c(s2)CCN(Cc2ccc(Cl)cn2)c2[nH]ncc2-3)n1 [Compound 1-10]
229 to 232 °C | > 7.00 | Cc1ccnc(Nc2nc3c(s2)CCNc2[nH]ncc2-3)n1 [Compound 1-52]
212 to 215 °C | > 7.00 | COCC(C)N1CCc2sc(Nc3ncc(F)cn3)nc2-c2cn[nH]c21 (centres unmarked) [Compound 1-125]
 | > 7.00 | Fc1cnc(Nc2nc3c(s2)CCN(C[C@@H]2CCCO2)c2[nH]ncc2-3)nc1 [Compound 1-126]
229 to 231 °C | 6.00 to 7.00 | Cc1cccc(Nc2nc3c(s2)CCN(C[C@@H]2CCCO2)c2[nH]ncc2-3)n1 [Compound 1-127]
261 to 263 °C | > 7.00 | COCCN1CCc2sc(Nc3ncc(F)c(C)n3)nc2-c2cn[nH]c21 [Compound 1-129, N-(5-Fluoro-4-methylpyrimidin-2-yl)-6-(2-methoxyethyl)-4,5,6,8-tetrahydropyrazolo[3,4-b]thiazolo[4,5-d]azepin-2-amine]
 | 5.00 to 6.00 | CNCCCN1CCc2sc(Nc3ncc(F)cn3)nc2-c2cn[nH]c21 [Compound 1-130, N-(5-Fluoropyrimidin-2-yl)-6-(3-(methylamino)propyl)-4,5,6,8-tetrahydropyrazolo[3,4-b]thiazolo[4,5-d]azepin-2-amine]
 | 5.00 to 6.00 | CC(C)N1CCN(CCN2CCc3sc(Nc4ncc(F)cn4)nc3-c3cn[nH]c32)CC1 [Compound 1-141, N-(5-Fluoropyrimidin-2-yl)-6-(2-(4-isopropylpiperazin-1-yl)ethyl)-4,5,6,8-tetrahydropyrazolo[3,4-b]thiazolo[4,5-d]azepin-2-amine]
 | > 7.00 | Cc1ccnc(Nc2nc3c(s2)CCN(Cc2noc(C)n2)c2[nH]ncc2-3)n1 [Compound 1-146]
 | 6.00 to 7.00 | Cc1ccnc(Nc2nc3c(s2)CCN(Cc2ncccn2)c2[nH]ncc2-3)n1 [Compound 1-152]
